# Measurements as given in patent publication US11696893B2, “Preparation comprising vonoprazan” (Takeda Pharmaceutical Company Limited, priority 2017, dated 2023).
# Columns and labels:
# Format in all cases: physicochemical
# [1] = Dissolution profile of compound A, fumaric acid, succinic acid (Rotating Basket 100 rpm); conditions: water-insoluble polymer coated particle of Example 1 or coagulation inhibiting substance coated particle of Reference Example 3, 60 mg compound A; FIG. 12-13
# Experimental: The water-insoluble polymer coated particle of Example 1 or the coagulation inhibiting substance coated particle of Reference Example 3, each of which contained 60 mg of compound A, was subjected to a dissolution test using Rotating Basket at 100 rpm and in the same manner as in Experimental Example 1. The dissolution amounts of fumaric acid or succinic acid as well as compound A were also measured. As for fumaric acid and succinic acid, the residual rate of each organic acid in the particles were inversely calculated from the dissolution rate, and the value of the maximum dissolution amount was normalized assuming 0% of the residual rate.
# [2] = Influence of concentration of fumaric acid or monosodium fumarate on dissolution amount of compound A (common ion effect); conditions: JP2 with various concentrations of fumaric acid or monosodium fumarate, room temperature, 1 hr; FIG. 11
# Experimental: Solutions containing various concentrations of fumaric acid or monosodium fumarate dissolved in the Japanese Pharmacopoeia dissolution test 2nd fluid were prepared. Then, 50 mg of compound A was measured and charged in a 10 mL plastic tube and each of the above-mentioned solution (5 mL) was added and the mixture was vigorously shaken at room temperature for 1 hr. The suspension after shaking was filtered, diluted 100-fold and subjected to HPLC measurement. The dissolution amount of compound A was measured.
# [3] = Dissolution amount of compound A in saturated organic acid; conditions: room temperature, shaken 1 hr
# Experimental: Citric acid, succinic acid, fumaric acid or malic acid was dissolved and saturated in the Japanese Pharmacopoeia dissolution test 2nd fluid (JP2), and filtered. Successively, compound A (0.4 g) was added to a filtrate (10 mL) saturated with an organic acid and the mixture was shaken at room temperature for 1 hr. The solution after shaking was filtered, diluted 50-fold with the Japanese Pharmacopoeia dissolution test 2nd fluid, and the diluted solution was diluted 20-fold with the Japanese Pharmacopoeia dissolution test 2nd fluid. The solution obtained by diluting twice was subjected to HPLC measurement and the dissolution amount of compound A was measured.
# [4] = Confirmation of dissolution control mechanism-1 (dissolution test, paddle 100 rpm); conditions: water-soluble polymer coated particle 3 of Reference Example 2, FIG. 14
# Experimental: The water-soluble polymer coated particle 3 obtained in Reference Example 2 and containing 60 mg of compound A was subjected to a dissolution test using paddle at 100 rpm and in the same manner as in Experimental Example 1. The dissolution media was the Japanese Pharmacopoeia dissolution test 2nd fluid, the Japanese Pharmacopoeia dissolution test 2nd fluid added with 10% (W/W) sodium carbonate, the Japanese Pharmacopoeia dissolution test 2nd fluid added with 13% (W/W) succinic acid, or the Japanese Pharmacopoeia dissolution test 2nd fluid added with 0.6% (W/W) fumaric acid.
structure (smiles),measurement,setting,value
"CNCc1cc(-c2ccccc2F)n(S(=O)(=O)c2cccnc2)c1.O=C(O)/C=C/C(=O)O [compound A, 1-[5-(2-Fluorophenyl)-1-(pyridin-3-ylsulfonyl)-1H-pyrrol-3-yl]-N-methylmethanamine monofumarate]",start of dissolution of compound A relative to organic acid,[1],started after dissolution of fumaric acid or succinic acid
same,dissolution amount of compound A,[2],influenced by the concentration of fumaric acid or monosodium fumarate
same,concentration (dissolution amount of compound A),"[3]; JP2, saturated organic acid: none",5.22 µg·mL
same,concentration (dissolution amount of compound A),[3]; JP2 saturated with citric acid,26.30 µg·mL
same,concentration (dissolution amount of compound A),"[3]; JP2 saturated with fumaric acid, listed as Compound A, monofumarate",low concentration
same,concentration (dissolution amount of compound A),"[3]; JP2 saturated with fumaric acid, monofumarate",0.67 µg·mL
same,concentration (dissolution amount of compound A),[3]; JP2 saturated with malic acid,26.64 µg·mL
same,dissolution of compound A,[4]; JP2 added with 10% (W/W) sodium carbonate,suppressed dissolution
same,dissolution of compound A,[4]; JP2 added with 13% (W/W) succinic acid or 0.6% (W/W) fumaric acid,did not show a dissolution suppressive action
